This is an account of results in US20210253454A1, “MICELLAR DELIVERY METHOD” (EVONIK OPERATIONS GMBH, priority 2018, published 2021).

In series [1] the test system is Pseudomonas aeruginosa (ATCC 15442) biofilm. In words: Biocidal activity on biofilm, CDC Biofilm reactor, glass coupons, 1-4 hrs. It is filed as cell-based. Particulars: initial 100 ppm. From the text: We evaluated the biocidal activity of PAA-surfactant solutions on microbial biofilms using a CDC Biofilm reactor from BioSurface Technologies. This reactor supplies a continuous flow of nutrient broth through a container that exposes bacteria growing on glass coupons to shear forces. The setup mimics at least two features typical for oilfield operations: a renewable nutrient source and shear forces applied to the biofilms. All reactor parts were cleaned with a solution of 1% Neutrad lab soap and rinsed well with deionized water, and allowed to dry prior to autoclaving on a 20 minutes gravity cycle to sterilize.
Pseudomonas aeruginosa (ATCC 15442) biofilm was grown for 48 hours in the biofilm reactor on glass coupons at 25° C. A solution containing 300 mg/L of sterile trypticase soy broth (TSB) was used as nutrient feed. 1 mL of the working inoculum of P. aeruginosa was added through the inoculation port. The first step was a 24 hours batch phase followed by 24 hours in continuous flow mode, when 100 mg/L TSB solution was pumped into the stirring reactor for about 24 hours at room temperature to create a matured biofilm on the coupon surfaces.
(§1) Upon completion of the biofilm growth phase, the coupons were removed and rinsed by immersion into 30 mL dilution buffer. Coupons were placed into sterile centrifuge test tubes and 4 mL biocide or buffer were added. Then the tubes were vortexed on low speed to ensure complete coverage of the coupon. At the appropriate time, the biocide was poured off, and reserved for chemical analysis of PAA and hydrogen peroxide. Then, a 10 mL aliquot of chemical neutralizing Letheen broth with 0.5% sodium thiosulfate was added to each tube. One treated coupon from each treatment group was removed at final time point for visual analysis.
The compositions were diluted with deionized water before use, such that the initial concentration of PAA-surfactant active ingredient was 100 ppm.
In order to recover remaining viable bacteria from the coupons, the test tubes with coupons were vortexed for 30 s on highest setting, and then sonicated for 30 s at 45 kHz. This treatment was then repeated twice. After that, the broth was diluted serially into Butterfield's buffer, and the dilutions plated on 3M™ Petrifilm™ Aerobic Count Plates. The plates were incubated for 48 hours at 35° C., and then counted. Calculations were performed to obtain the Log10 CFU/mL of the solutions at each time point.

Series [2] in a line: Oxidizer (PAA, hydrogen peroxide) concentration in treatment solution during biofilm test. Particulars: initial 100 ppm. Type of series: physicochemical. The procedure: as §1
PAA and Hydrogen peroxide concentrations were monitored during the test by using Chemetrics test kits K-7913F and K-5543.
We further evaluated the biocidal activity of PAA-surfactant solutions on microbial biofilms using a CDC Biofilm reactor from BioSurface Technologies as described in Example 9. The three biocide solutions were also as described in Example 9, but the contact time was increased to about 72 hours under agitation. Additionally, for this test, the biocide aliquot was increased from the standard method amount of 4 mL up to 30 mL. These adjustments were made to more accurately simulate expected field conditions. The recovery was performed as described in the Example 8. […] Chemical analysis indicated only a slight reduction in concentrations of both PAA and hydrogen peroxide over the 72-hour time period.

With `CC(=O)OO` [PAA, peracetic acid], the results for the Log10 reduction in series [1] (1 hrs), in series [1] (2 hrs) and in series [1] (4 hrs) were 1.4 Log10, 2.2 Log10 and 3.1 Log10, respectively. In addition, the Log10 remaining turned out to be 7.8 Log10 CFU/mL in series [1] (1 hrs), 7.0 Log10 CFU/mL in series [1] (2 hrs) and 6.1 Log10 CFU/mL in series [1] (4 hrs). Moreover, the “H2O2, ppm” value is 35 ppm in series [2] (1 hrs), 27 ppm in series [2] (2 hrs) and 10 ppm in series [2] (4 hrs). The “PAA, ppm” value in series [2] (1 hrs) came out at 63 ppm; in series [2] (2 hrs), 54 ppm; in series [2] (4 hrs) it was 30 ppm.
